Among the data in US7851467B2, “Carbamate compounds as 5-HT4 receptor agonists” (Theravance, Inc., priority 2005, dated 2010) are AUC(0-t), Cmax and bioavailability values, retold here.

This series is described as follows: Pharmacokinetic study in the rat. Type of series: in vivo. The note with it: male Sprague-Dawley rats. The procedure:
Assay 6: Pharmacokinetic Study in the Rat
Aqueous solution formulations of test compounds were prepared in 0.1% lactic acid at a pH of between about 5 and about 6. Male Sprague-Dawley rats (CD strain, Charles River Laboratories, Wilmington, Mass.) were dosed with test compounds via intravenous administration (IV) at a dose of 2.5 mg/kg or by oral gavage (PO) at a dose of 5 mg/kg. The dosing volume was 1 mL/kg for IV and 2 mL/kg for PO administration. Serial blood samples were collected from animals pre-dose, and at 2 (IV only), 5, 15, and 30 min, and at 1, 2, 4, 8, and 24 hours post-dose. Concentrations of test compounds in blood plasma were determined by liquid chromatography-mass spectrometry analysis (LC-MS/MS) (MDS SCIEX, API 4000, Applied Biosystems, Foster City, Calif.) with a lower limit of quantitation of 1 ng/mL.
Standard pharmacokinetic parameters were assessed by non-compartmental analysis (Model 201 for IV and Model 200 for PO) using WinNonlin (Version 4.0.1, Pharsight, Mountain View, Calif.). The maximum in the curve of test compound concentration in blood plasma vs. time is denoted Cmax. The area under the concentration vs. time curve from the time of dosing to the last measurable concentration (AUC(O-t)) was calculated by the linear trapezoidal rule. Oral bioavailability (F(%)), i.e. the dose-normalized ratio of AUC(O-t) for PO administration to AUC(O-t) for IV administration, can be calculated as: F(%)=AUCPO/AUCIV×DoseIV/DosePO×100%
The compounds of the invention that were tested in this assay had Cmax values between about 0.15 to about 0.35 μg/mL and AUC(0−t) values between about 0.5 to about 1.1 μg·hr/mL.

Where [1] appears, read: blood plasma, dosing IV 2.5 mg/kg or PO 5 mg/kg.

Under setting [1], `CC(C)n1c(=O)n(C(=O)N[C@H]2C[C@H]3CC[C@@H](C2)N3CCCOC(=O)N2CCN(C(=O)C3CCCO3)CC2)c2ccccc21` (stereo partly drawn) [Example 1, 4-(tetrahydrofuran-2-carbonyl)piperazine-1-carboxylic acid 3-{(1S,3R,5R)-3-[(3-isopropyl-2-oxo-2,3-dihydrobenzoimidazole-1-carbonyl)amino]-8-aza-bicyclo[3.2.1]oct-8-yl}propyl ester] had an AUC(0-t) of 970 ng·h/mL and a Cmax of 320 ng/mL. For the same molecule, the bioavailability (plasma, PO 5 mg/kg vs IV 2.5 mg/kg, dose-normalized AUC ratio, read-out: oral bioavailability F(%)) stood at 55%.
